Molecular target: T1, ERR1 (also known as ERR-α or ERR-1) (Homo sapiens, UniProt P11474)
T1 construct: the ^6His-tagged-ERR1 LBD
T1 sequence (P11474 193-421 limits assumed): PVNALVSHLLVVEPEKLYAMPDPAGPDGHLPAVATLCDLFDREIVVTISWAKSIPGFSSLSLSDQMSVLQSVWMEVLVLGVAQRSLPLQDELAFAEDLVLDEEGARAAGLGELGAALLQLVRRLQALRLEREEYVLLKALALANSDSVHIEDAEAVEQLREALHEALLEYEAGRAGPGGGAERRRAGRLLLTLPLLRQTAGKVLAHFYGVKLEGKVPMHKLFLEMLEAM
Experiment: TR-FRET assay: disruption of co-activator peptide binding to ERR1 LBD
Type: biochemical
Conditions: 6His-tagged ERR1 LBD 6 nM, GST-SRC-2 peptide 6 nM, 25° C., 4-18 hours; average of 3 independent experiments
Procedure: Time-Resolved Fluorescence Resonance Energy Transfer (TR-FRET) experiments were performed to examine the functional response of ERR1 (also known as ERR-α or ERR-1) ligands. The TR-FRET assay described herein relied on the conformation of ERR1 for binding to a co-activator peptide: when a test compound binds to ERR1 and alters its conformation, it can disrupt the binding of the co-activator peptide. The components of this homogeneous secondary assay included: the ^6His-tagged-ERR1 LBD, a GST-labeled-hSRC2 co-activator polypeptide and a fluorescent donor/acceptor pair from CIS bio international htrf/bioassays (Bedford, Mass.) using both an α-GST Europium Cryptate (Eu) label and an α^6His-XL665 (allophycocyanin) fluorophore.
For TR-FRET measurements, the reaction was buffered in 25 mM Tris pH 8, 2.5 mM Hepes, 20 mM KCl, 1 mM DTT, and 0.05 mg/mL BSA (-lipids). […] Reactions were allowed to reach equilibrium at 25° C. for 4-18 hours before collecting data on the Analyst from LJL Biosystems (Molecular Devices Sunnyvale, Calif.). […] Dose response curves were fitted using a hyperbolic equation and the data reported is the average of 3 independent experiments.

Row | Structure (SMILES) | EC50 [nM]
1 | COc1cc(/C=C2\SC(NC[C@@H](O)CO)=NC2=O)ccc1Oc1ccc(C#N)cc1C(F)(F)F [Example 34, 4-{4-[2-(2R,3-Dihydroxy-propylamino)-4-oxo-4H-thiazol-5-ylidenemethyl]-2-methoxy-phenoxy}-3-trifluoromethyl-benzonitrile] | 19
2 | COc1cc(/C=C2\SC(NC3CCOCC3)=NC2=O)ccc1Oc1ccc(C#N)cc1C(F)(F)F [Compound 15, 4-{2-Methoxy-4-[4-oxo-2-(tetrahydro-pyran-4-ylamino)-4H-thiazol-5-ylidenemethyl]-phenoxy}-3-trifluoromethyl-benzonitrile] | 18
3 | COc1cc(/C=C2\SC(NCC(O)CN)=NC2=O)ccc1Oc1ccc(C#N)cc1C(F)(F)F (stereo not shown) [Example 95, 4-{4-[2-(3-Amino-2-hydroxy-propylamino)-4-oxo-4H-thiazol-5-ylidenemethyl]-2-methoxy-phenoxy}-3-trifluoromethyl-benzonitrile] | 89
4 | CCOc1cc(/C=C2\SC(N(CCO)CCO)=NC2=O)ccc1Oc1ccc(C#N)cc1C(F)(F)F [Example 56, 4-(4-{2-[Bis-(2-hydroxy-ethyl)-amino]-4-oxo-4H-thiazol-5-ylidenemethyl}-2-ethoxy-phenoxy)-3-trifluoromethyl-benzonitrile] | 150
5 | COc1cc(/C=C2\SC(NCC(F)F)=NC2=O)ccc1Oc1ccc(C#N)cc1C(F)(F)F [Example 92, 4-{4-[2-(2,2-Difluoro-ethylamino)-4-oxo-4H-thiazol-5-ylidenemethyl]-2-methoxy-phenoxy}-3-trifluoromethyl-benzonitrile] | 6
6 | COc1cc(/C=C2\SC(N(C)CCN)=NC2=O)ccc1Oc1ccc(C#N)cc1C(F)(F)F [Example 37, 4-(4-{2-[(2-Amino-ethyl)-methyl-amino]-4-oxo-4H-thiazol-5-ylidenemethyl}-2-methoxy-phenoxy)-3-trifluoromethyl-benzonitrile] | 100
7 | COc1cc(/C=C2\SC(NCc3ccsc3)=NC2=O)ccc1Oc1ccc(C#N)cc1C(F)(F)F [Example 89, 4-(2-Methoxy-4-{4-oxo-2-[(thiophen-3-ylmethyl)-amino]-4H-thiazol-5-ylidenemethyl}-phenoxy)-3-trifluoromethyl-benzonitrile] | 25
8 | COc1cc(/C=C2\SC(NCCCN(C)C)=NC2=O)ccc1Oc1ccc(C#N)cc1C(F)(F)F [Compound 26, 4-{4-[2-(3-Dimethylamino-propylamino)-4-oxo-4H-thiazol-5-ylidenemethyl]-2-methoxy-phenoxy}-3-trifluoromethyl-benzonitrile] | 13

Now from value to molecule:

Row | EC50 [nM] | Structure (SMILES)
9 | 17 | COc1cc(/C=C2\SC(N(C)C)=NC2=O)ccc1Oc1ccc(C#N)cc1C(F)(F)F [Example 81, 4-[4-(2-Dimethylamino-4-oxo-4H-thiazol-5-ylidenemethyl)-2-methoxy-phenoxy]-3-trifluoromethyl-benzonitrile]
10 | 19 | N#Cc1ccc(Oc2ccc(/C=C3\SC(N4CCNC(=O)C4)=NC3=O)cc2F)c(C(F)(F)F)c1 [Example 47, 4-{2-Fluoro-4-[4-oxo-2-(3-oxo-piperazin-1-yl)-4H-thiazol-5-ylidenemethyl]-phenoxy}-3-trifluoromethyl-benzonitrile]
11 | 22 | CN1CCN(C2=NC(=O)/C(=C/c3ccc(Oc4ccc(C#N)cc4C(F)(F)F)c(F)c3)S2)CC1=O [Example 43, 4-{2-Fluoro-4-[2-(4-methyl-3-oxo-piperazin-1-yl)-4-oxo-4H-thiazol-5-ylidenemethyl]-phenoxy}-3-trifluoromethyl-benzonitrile]
12 | 89 | COc1cc(/C=C2\SC(N3CCNC(=O)C3)=NC2=O)ccc1Oc1ccc(C(N)=O)cc1C(F)(F)F [Example 115, 4-{2-Methoxy-4-[4-oxo-2-(3-oxo-piperazin-1-yl)-4H-thiazol-5-ylidenemethyl]-phenoxy}-3-trifluoromethyl-benzamide]
13 | 19 | COc1cc(/C=C2\SC(N3CCN(CCO)CC3)=NC2=O)ccc1Oc1ccc(C#N)cc1C(F)(F)F [Compound 16, 4-(4-{2-[4-(2-Hydroxy-ethyl)-piperazin-1-yl]-4-oxo-4H-thiazol-5-ylidenemethyl}-2-methoxy-phenoxy)-3-trifluoromethyl-benzonitrile]
